Data on 20 compounds can be found in paper PMC11912484 (Journal of Medicinal Chemistry, 2025).

Series [1] has as its target T1, MbtI (Mycobacterium tuberculosis, UniProt P9WFX1).
T1 construct: made in house
In words: MbtI fluorimetric enzyme inhibition assay. Format: biochemical. The settings on record: for remaining activity at 100 µM / % RA (percentage of residual enzymatic activity): 100 μM test compound, 50 μM chorismic acid; for remaining activity at 100 µM: read-out: % RA (percentage of residual enzymatic activity); for IC50: recombinant MbtI. As for the experimental part: MbtI from Mtb was produced in recombinant form, and enzyme activity was determined using a fluorimetric assay, as previously reported.[38] For the inhibition studies, the activity was determined in the presence of 100 μM of the test compound and 50 μM of chorismic acid. For compounds that inhibited more than 80% of the initial activity, IC50 values were calculated using eq 1 and GraphPad Prism 8.0 software [drawing 1] 1 where A[I] is the activity at inhibitor concentration [I] and A[0] is the activity in the absence of the inhibitor.

The test system of series [2] is M. bovis BCG. In words: microbe, parasite or virus in culture. Format: cell-based. The settings on record: for MIC99: Mycobacterium tuberculosis variant bovis BCG, BCG; for antimycobacterial effect (in words): M. bovis BCG, REMA.
The test system of series [3] is mycobacterial efflux pumps. Format: cell-based, M. bovis BCG. The settings on record: MIC99 with reserpine 32 μg/mL or verapamil 125 μg/mL (1/2 MIC).
The test system of series [4] is M. bovis BCG. Format: cell-based. The note with it: 1 × MIC and 10 × MIC, low-iron chelated Sauton's medium.
The test system of a further series is siderophore production. Format: cell-based. The settings on record: M. bovis BCG grown with different concentrations of compound.
The test system of series [5] is Mtb-infected murine alveolar-like macrophages (mAMs). Format: cell-based, Mycobacterium tuberculosis.
The test system of series [6] is mouse alveolar-like macrophages (MPI-2 cell line). The series can be described thus: MTT viability assay on mAMs. Format: cell-based. The settings on record: 24 h exposure, 200, 100, 50 and 25 μM. As for the experimental part: Cell viability was evaluated on human monocytes (THP-1 cell line), human lung fibroblasts (HLF cell line), and mouse alveolar-like macrophages (MPI-2 cell line) using the thiazolyl blue tetrazolium bromide method (MTT; chemicals acquired from Sigma-Aldrich, Merck KGaA).
For orientation: Tetrazolium assays rely on reduction of a dye to a coloured formazan, in cell work by metabolically active cells.

The next series in a line: Polymersome size by DLS. Format: physicochemical. The note with it: three independent batches. As for the experimental part: The purified solutions were then analyzed by Transmission Electron Microscopy (TEM) on a Jeol JEM 1010 100 kV microscope, equipped with a Megaview 1kx1k CCD (Jeol Ltd., Tokyo, Japan). Copper grids were glow-discharged, and the sample was adsorbed onto the grid. The sample was stained with 1 wt % phosphotungstic acid (PTA) adjusted to pH 7.4 with NaOH. All the TEM analyses were performed with dried samples. The nanoparticle size distribution was characterized by DLS analyses (DLS PN3704 Zetasizer, Malvern Panalytical) using a copolymer concentration of 0.20 mg/mL. For each analysis, 3 measurements were carried out, based on 11 runs. Samples were analyzed at 25 °C with a scattering angle of 173° and a 633 nm HeNe laser, based on a material refractive index (RI) of 1.59, a dispersant refractive index of 1.330, and a viscosity of 0.89. Drug encapsulation was measured by RP-HPLC (Dionex UltiMate 3000, ThermoFisher Scientific). A gradient of water + TFA 0.05% (A) and MeOH + TFA 0.05% (B) from 0 min (30% B) to 30 min (100% B) was used to run the samples through a Jupiter 5 μm C18 300 Å, 150 × 4.6 mm column (Phenomenex, Torrance, CA). The peak area was integrated by using Chromeleon version 6.8 (ThermoFisher Scientific).

Series [7] relates to M. bovis BCG. The settings on record: cited from earlier work.
In series [8] the target is T1, MbtI. The settings on record: compound II; cited from earlier work.
The subject of the next series is human cell lines. Also noted: method as in PMID 30889995, PMID 36015139. The settings on record: several human cell lines; cited from earlier work.
In another series the test system is Mtb H37Rv. Also noted: method as in PMID 32530281. The settings on record: compound I; cited from earlier work.

≈ marks a conversion by molar mass, not a printed value. Entries after “also recorded” stand apart in the source; their conditions may differ. Like-named read-outs stand apart in the source and are kept apart here.

T1 sequence (P9WFX1 whole entry): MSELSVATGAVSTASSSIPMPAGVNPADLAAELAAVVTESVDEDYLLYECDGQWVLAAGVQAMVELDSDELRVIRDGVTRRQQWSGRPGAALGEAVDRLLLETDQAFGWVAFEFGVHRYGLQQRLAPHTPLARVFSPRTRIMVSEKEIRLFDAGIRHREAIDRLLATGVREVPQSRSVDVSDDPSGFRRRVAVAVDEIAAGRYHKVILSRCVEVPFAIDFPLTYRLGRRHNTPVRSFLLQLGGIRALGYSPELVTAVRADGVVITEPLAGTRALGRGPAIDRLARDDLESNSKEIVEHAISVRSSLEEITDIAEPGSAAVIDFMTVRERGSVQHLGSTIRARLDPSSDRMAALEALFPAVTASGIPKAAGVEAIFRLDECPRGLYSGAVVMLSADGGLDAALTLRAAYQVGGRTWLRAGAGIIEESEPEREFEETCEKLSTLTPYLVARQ

By IC50 is commonly meant the concentration that gives 50% inhibition. In the case of `CCOc1cc(C#N)cc(-c2ccc(C(=O)O)o2)c1` [Compound 1a, 5-(3-Cyano-5-ethoxyphenyl)furan-2-carboxylic Acid], on MbtI [1], the remaining activity at 100 µM was determined as 4.9 ± 2.3% and the IC50 was 11.8 ± 0.6 µM. The MIC99 in the series with M. bovis BCG [2] is above 500 µM.

As for `CC(C)Oc1cc(C#N)cc(-c2ccc(C(=O)O)o2)c1` [Compound 1b, 5-(3-Cyano-5-isopropoxyphenyl)furan-2-carboxylic Acid], at MbtI [1], the remaining activity at 100 µM turned out to be 12.1 ± 2.9% and the IC50 came to 21.1 ± 0.6 µM. This compound had an MIC99 against M. bovis BCG [2] above 500 µM.

`CCCOc1cc(C#N)cc(-c2ccc(C(=O)O)o2)c1` [Compound 1c, 5-(3-Cyano-5-propoxyphenyl)furan-2-carboxylic Acid]: at MbtI [1], the remaining activity at 100 µM came to 2.5 ± 0.4% and the IC50 worked out at 18.5 ± 0.9 µM. Besides, the MIC99 against M. bovis BCG [2] is 250 µM (≈ 67.8 µg/mL).

Regarding `CCCCOc1cc(C#N)cc(-c2ccc(C(=O)O)o2)c1` [Compound 1d, 5-(3-Butoxy-5-cyanophenyl)furan-2-carboxylic Acid], the “substrate of mycobacterial efflux pumps” value in series [3] is listed as “not substrates of efflux pumps”. At MbtI [1], the remaining activity at 100 µM is below 1% and the 50% inhibitory concentration (IC50) came to 0.9 ± 0.2 µM. In the series with M. bovis BCG [2], this compound gave an MIC99 of 63 µM (≈ 18 µg/mL).

In the case of `CC(C)COc1cc(C#N)cc(-c2ccc(C(=O)O)o2)c1` [Compound 1e, 5-(3-Cyano-5-isobutoxyphenyl)furan-2-carboxylic Acid], in series [3], the “substrate of mycobacterial efflux pumps” value is recorded as “not substrates of efflux pumps”. In addition, in the series with M. bovis BCG [4], the time-killing behaviour result is on record as “bacteriostatic activity”. Further, at MbtI [1], the remaining activity at 100 µM was 7 ± 3.1% and the IC50 is 11.2 ± 1.5 µM. Further, the MIC99 against M. bovis BCG [2] worked out at 32 µM (≈ 9.13 µg/mL). The “siderophore production (CAS assay)” value in the series on siderophore production is on record as “acted by impairing the production of siderophores”. The “reduction in Mtb intracellular burden by the free compound” value in series [5] is given as “did not exhibit significant activity on infected macrophages; also recorded: detected only at the highest tested concentration (200 μM)”.

On to `N#Cc1cc(OCC2CC2)cc(-c2ccc(C(=O)O)o2)c1` [Compound 1f, 5-(3-Cyano-5-(cyclopropylmethoxy)phenyl)furan-2-carboxylic Acid], for which, on MbtI [1], the “% RA (percentage of residual enzymatic activity)” value came out at 20.6 ± 2.4% and the remaining activity at 100 µM came to 20%. In the series on M. bovis BCG [2], this compound showed an MIC99 of 125 µM (≈ 35.4 µg/mL).

As for `N#Cc1cc(OCC2CCC2)cc(-c2ccc(C(=O)O)o2)c1` [Compound 1g, 5-(3-Cyano-5-(cyclobutylmethoxy)phenyl)furan-2-carboxylic Acid], at MbtI [1], the “% RA (percentage of residual enzymatic activity)” value is recorded as 30.4 ± 6.3% and the remaining activity at 100 µM amounted to 30%. For the same compound, in the series with M. bovis BCG [2], the MIC99 is 250 µM (≈ 74.3 µg/mL).

`CC(C)(C)COc1cc(C#N)cc(-c2ccc(C(=O)O)o2)c1` [Compound 1h, 5-(3-Cyano-5-(neopentyloxy)phenyl)furan-2-carboxylic Acid]: on MbtI [1], the remaining activity at 100 µM is 6.8 ± 3.1% and the IC50 is 18.6 ± 1.5 µM. The same compound gave an MIC99 against M. bovis BCG [2] of 125 µM (≈ 37.4 µg/mL).

Take `CCCCCOc1cc(C#N)cc(-c2ccc(C(=O)O)o2)c1` [Compound 1i, 5-(3-Cyano-5-(pentyloxy)phenyl)furan-2-carboxylic Acid]: on MbtI [1], the remaining activity at 100 µM was 0.4 ± 0.2% and the IC50 was 6.8 ± 0.1 µM. Further, the MIC99 against M. bovis BCG [2] was 125 µM (≈ 37.4 µg/mL).

`CC(C)CCOc1cc(C#N)cc(-c2ccc(C(=O)O)o2)c1` [Compound 1j, 5-(3-Cyano-5-(isopentyloxy)phenyl)furan-2-carboxylic Acid]: at MbtI [1], the remaining activity at 100 µM was found to be 1.6 ± 1.4% and the IC50 amounted to 22 ± 1.8 µM. Further, the MIC99 against M. bovis BCG [2] worked out at 125 µM (≈ 37.4 µg/mL).

With `CCCCCCOc1cc(C#N)cc(-c2ccc(C(=O)O)o2)c1` [Compound 1k, 5-(3-Cyano-5-(hexyloxy)phenyl)furan-2-carboxylic Acid], the “substrate of mycobacterial efflux pumps” value in series [3] was “not substrates of efflux pumps”. Also, on MbtI [1], the remaining activity at 100 µM is 6 ± 6.1% and the IC50 was 9.9 ± 1.3 µM. The same compound yielded an MIC99 in the series with M. bovis BCG [2] of 63 µM (≈ 19.7 µg/mL).

Take `CCCCCCCCOc1cc(C#N)cc(-c2ccc(C(=O)O)o2)c1` [Compound 1l, 5-(3-Cyano-5-(octyloxy)phenyl)furan-2-carboxylic Acid]: on MbtI [1], the “% RA (percentage of residual enzymatic activity)” value worked out at 40.0 ± 4.1% and the remaining activity at 100 µM came to 40%.

With `CC=CCOc1cc(C#N)cc(-c2ccc(C(=O)O)o2)c1` [Compound 1m, 5-(3-(But-2-en-1-yloxy)-5-cyanophenyl)furan-2-carboxylic Acid], on MbtI [1], the remaining activity at 100 µM turned out to be 7.5 ± 0.3% and the IC50 came to 3.1 ± 0.7 µM. In addition, the MIC99 in the series with M. bovis BCG [2] worked out at 125 µM (≈ 35.4 µg/mL).

As to `C/C=C/C=C/COc1cc(C#N)cc(-c2ccc(C(=O)O)o2)c1` [Compound 1n, 5-(3-Cyano-5-((2E,4E)-hexa-2,4-dien-1-yloxy)phenyl)furan-2-carboxylic Acid], at MbtI [1], the remaining activity at 100 µM amounted to 10 ± 3.6% and the IC50 was determined as 16.6 ± 2.1 µM. Further, in the series on M. bovis BCG [2], the “antimycobacterial effect (in words)” value is on record as “completely abolished the antimycobacterial effect” and the MIC99 is above 500 µM.

Consider `C/C=C/C=C/C=C/COc1cc(C#N)cc(-c2ccc(C(=O)O)o2)c1` [Compound 1o, 5-(3-Cyano-5-((2E,4E,6E)-octa-2,4,6-trien-1-yloxy)phenyl)furan-2-carboxylic Acid], for which, on MbtI [1], the remaining activity at 100 µM came to 18.4 ± 3.8% and the IC50 amounted to 9.2 ± 2.4 µM. In the series on M. bovis BCG [2], the “antimycobacterial effect (in words)” value was “completely abolished the antimycobacterial effect” and the MIC99 is above 500 µM.

Consider `CCOC(=O)c1ccc(-c2cc(C#N)cc(OCC(C)C)c2)o1` [Compound 2ea, Ethyl 5-(3-Cyano-5-isobutoxyphenyl)furan-2-carboxylate], for which the remaining activity at 100 µM on MbtI [1] is 71.5 ± 7.6%. Besides, the “mAM viability / cytotoxic effect” value in series [6] was “increase in mAM mortality at the two highest tested concentrations (200 and 100 μM)”. Besides, in the series with M. bovis BCG [2], the MIC99 was 64 µM (≈ 20.1 µg/mL). Also, the “average size (hydrodynamic diameter) of drug-containing POs” value in the series “Polymersome size by DLS” stood at 44.46 ± 9.58 nm.

For `CCCOC(=O)c1ccc(-c2cc(C#N)cc(OCC(C)C)c2)o1` [Compound 2eb, Propyl 5-(3-Cyano-5-isobutoxyphenyl)furan-2-carboxylate], the remaining activity at 100 µM at MbtI [1] worked out at 94 ± 9.3%. The “mAM viability / cytotoxic effect” value in series [6] is “increase in mAM mortality at the two highest tested concentrations (200 and 100 μM)”. In the series on M. bovis BCG [2], this compound had an MIC99 of 125 µM (≈ 40.9 µg/mL). The “average size (hydrodynamic diameter) of drug-containing POs” value in “Polymersome size by DLS” is given as 45.68 ± 1.86 nm.

Turning to `N#Cc1cc(OCCOc2ccccc2)cc(-c2ccc(C(=O)O)o2)c1` [II], the MIC99 in the series with M. bovis BCG [7] (compound II) was 63 µM (≈ 22 µg/mL). For the same compound, the IC50 at MbtI [8] was 12.1 µM.

For `N#Cc1cccc(-c2ccc(C(=O)O)o2)c1` [I], the “safety on human cell lines” value in the series with human cell lines was “safe on several human cell lines”. In addition, the MIC99 was 250 µM (≈ 53.3 µg/mL) with M. bovis BCG [7] (compound I, M. bovis BCG) and 250 µM (≈ 53.3 µg/mL) with Mtb H37Rv.

As to `CO[C@H]1/C=C/O[C@@]2(C)Oc3c(C)c(O)c4c(O)c(c(/C=N/N5CCN(C)CC5)c(O)c4c3C2=O)NC(=O)/C(C)=C\C=C\[C@H](C)[C@H](O)[C@@H](C)[C@@H](O)[C@@H](C)[C@H](OC(C)=O)[C@@H]1C` [Rifampicin, reference compound], in series [5] (1 μg/mL (2x MIC), positive control), the “time of peak effect on Mtb fluorescence” value is reported as 3 day post-treatment.
